Data set [1] addresses T1, human recombinant MAO A (Homo sapiens, UniProt P21397).
T1 construct: purchased Sigma Aldrich, Milan, Italy
T1 sequence (P21397 1-527): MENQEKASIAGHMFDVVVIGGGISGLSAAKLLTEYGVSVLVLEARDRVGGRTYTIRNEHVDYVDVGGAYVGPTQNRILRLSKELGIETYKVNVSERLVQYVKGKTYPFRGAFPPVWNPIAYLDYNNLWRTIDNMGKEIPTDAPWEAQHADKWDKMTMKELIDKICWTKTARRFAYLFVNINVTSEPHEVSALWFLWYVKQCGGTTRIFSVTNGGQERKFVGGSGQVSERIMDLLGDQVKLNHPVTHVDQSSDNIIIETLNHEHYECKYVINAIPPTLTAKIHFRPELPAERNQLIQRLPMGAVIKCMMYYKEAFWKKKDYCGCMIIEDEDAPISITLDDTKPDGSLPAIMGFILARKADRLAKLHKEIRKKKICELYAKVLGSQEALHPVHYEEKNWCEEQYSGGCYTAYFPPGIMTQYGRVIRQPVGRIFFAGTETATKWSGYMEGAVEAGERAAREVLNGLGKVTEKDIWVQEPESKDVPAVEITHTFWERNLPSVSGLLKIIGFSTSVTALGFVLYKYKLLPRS
The data set is described as follows: biochemical. The conditions noted are these: for inhibition at 10 µM: read-out: MAO A % inhibition at 10 μM, mean ±SEM of three. As to the method:
(§1) In vitro enzymatic screening toward ChEs was carried out according to the known Ellman’s protocol, by using eeAChE and esBChE as highly homologous and cheaper surrogates for human enzymes. The enzyme inhibition assays on human MAOs were performed by applying already reported methods.
(§2) All enzymes and reagents were purchased from Sigma Aldrich, Milan, Italy. Inhibition of human recombinant MAO A and B was assayed by monitoring the fluorescence of 4-hydroxyquinoline produced from the oxidation of substrate kynuramine, following a previously published method. Acetylcholinesterase from electric eel and butyrylcholinesterase from equine serum were used in the Ellman’s spectrophotometric method as already described. In all cases, a 96-well plate procedure was used with an Infinite M1000 Pro plate reader (Tecan, Cernusco sul Naviglio, Italy). Inhibition values were determined as IC50 values by statistical analysis using Prism (GraphPad Prism version 5.00 for Windows, GraphPad Software, San Diego, CA, USA).

The target of data set [2] is T2, human recombinant MAO B (Homo sapiens, UniProt P27338).
T2 construct: purchased Sigma Aldrich, Milan, Italy
T2 sequence (P27338 1-520): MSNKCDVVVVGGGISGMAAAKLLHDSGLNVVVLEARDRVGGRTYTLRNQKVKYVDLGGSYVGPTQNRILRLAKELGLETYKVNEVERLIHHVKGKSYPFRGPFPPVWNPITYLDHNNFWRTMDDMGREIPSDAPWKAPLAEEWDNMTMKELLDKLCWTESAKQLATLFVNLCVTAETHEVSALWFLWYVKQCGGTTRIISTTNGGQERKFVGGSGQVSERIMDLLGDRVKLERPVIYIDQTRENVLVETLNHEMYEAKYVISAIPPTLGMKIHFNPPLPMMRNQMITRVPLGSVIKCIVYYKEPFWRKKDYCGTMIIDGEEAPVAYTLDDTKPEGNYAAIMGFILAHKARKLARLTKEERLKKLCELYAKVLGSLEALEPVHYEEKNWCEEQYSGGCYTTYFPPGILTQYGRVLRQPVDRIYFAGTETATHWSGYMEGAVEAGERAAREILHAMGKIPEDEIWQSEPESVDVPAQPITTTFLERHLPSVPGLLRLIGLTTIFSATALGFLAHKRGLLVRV
The data set is described as follows: Human recombinant MAO B inhibition (kynuramine fluorescence). It is filed as biochemical. The conditions noted are these: for IC50: mean ±SEM of three independent experiments. The method, then:
as §1, §2

The target in data set [3] is T3, Acetylcholinesterase from electric eel (Electrophorus electricus, UniProt O42275).
T3 construct: purchased Sigma Aldrich, Milan, Italy
T3 sequence (O42275 24-633): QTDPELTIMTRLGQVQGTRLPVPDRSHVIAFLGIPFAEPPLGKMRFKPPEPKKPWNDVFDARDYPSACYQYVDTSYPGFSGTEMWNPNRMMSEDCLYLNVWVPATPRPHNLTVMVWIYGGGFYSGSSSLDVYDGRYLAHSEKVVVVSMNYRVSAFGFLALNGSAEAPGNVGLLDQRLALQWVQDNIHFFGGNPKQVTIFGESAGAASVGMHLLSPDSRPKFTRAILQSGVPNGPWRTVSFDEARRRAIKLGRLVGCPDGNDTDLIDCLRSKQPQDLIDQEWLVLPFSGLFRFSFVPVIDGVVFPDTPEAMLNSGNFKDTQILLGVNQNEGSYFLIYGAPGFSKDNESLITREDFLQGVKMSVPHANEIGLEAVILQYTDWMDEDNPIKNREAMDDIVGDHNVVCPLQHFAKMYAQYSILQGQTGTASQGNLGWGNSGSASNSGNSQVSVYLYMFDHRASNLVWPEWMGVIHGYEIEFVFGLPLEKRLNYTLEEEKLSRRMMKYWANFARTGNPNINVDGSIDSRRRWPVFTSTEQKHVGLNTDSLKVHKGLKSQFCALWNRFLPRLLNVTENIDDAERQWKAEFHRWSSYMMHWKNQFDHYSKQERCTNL
The data set is described as follows: biochemical. It counts as biochemical. Particulars: for IC50: AChE from electric eel, mean ±SEM of three; for inhibition at 10 µM: read-out: AChE % inhibition at 10 μM. As to the method: as §1, §2

For data set [4], the target named is T4, butyrylcholinesterase from equine serum (Equus caballus, UniProt P81908).
T4 construct: butyrylcholinesterase from equine serum; purchased Sigma Aldrich, Milan, Italy; host or cells: equine serum
T4 sequence (P81908 whole entry): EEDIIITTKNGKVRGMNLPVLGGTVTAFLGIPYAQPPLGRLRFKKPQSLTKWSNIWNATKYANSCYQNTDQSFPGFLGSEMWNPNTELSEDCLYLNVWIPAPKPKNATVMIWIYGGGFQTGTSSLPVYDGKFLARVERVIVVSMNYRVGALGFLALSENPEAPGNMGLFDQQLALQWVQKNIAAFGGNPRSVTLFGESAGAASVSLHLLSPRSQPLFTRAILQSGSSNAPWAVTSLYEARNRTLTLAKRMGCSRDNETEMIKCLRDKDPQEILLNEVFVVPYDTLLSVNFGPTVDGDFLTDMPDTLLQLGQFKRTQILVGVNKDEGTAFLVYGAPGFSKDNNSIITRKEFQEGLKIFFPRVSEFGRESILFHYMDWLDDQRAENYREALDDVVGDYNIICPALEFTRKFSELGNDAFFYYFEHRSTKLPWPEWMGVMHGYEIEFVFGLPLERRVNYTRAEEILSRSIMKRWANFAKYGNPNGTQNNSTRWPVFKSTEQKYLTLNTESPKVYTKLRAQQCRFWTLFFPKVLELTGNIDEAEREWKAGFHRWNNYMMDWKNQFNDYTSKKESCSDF
The data set is described as follows: biochemical. It counts as biochemical. Particulars: for inhibition at 10 µM: read-out: BChE % inhibition at 10 μM; for IC50: BChE from equine serum, mean ±SEM of three. The method, then: as §1, §2

Data set [5] deals with T5, eeAChE (Electrophorus electricus, UniProt O42275).
T5 construct: purchased Sigma Aldrich, Milan, Italy
T5 sequence (O42275 24-633): as the sequence (O42275 24-633) above
As to the kind of experiment: Inhibition kinetics of eeAChE (Lineweaver-Burk). It counts as biochemical. The conditions noted are these: for mechanism of inhibition toward eeAChE: Lineweaver–Burk plots; for Ki: eeAChE, inhibitor 0 to 5 μM, acetylthiocholine 33 to 200 μM. The method, then:
as §2, with “Enzyme kinetics were used as tool for investigating the inhibition mechanism toward AChE. Compounds 8, bearing a meta-bromobenzyloxy substituent at coumarin C7, and 24, branched with a glycinamide chain as the variation at position 4, were chosen as prototypes bearing different head-or-tail modification schemes. […]. All” for “All”, “USA). […]” for “USA).”

Data set [6] has as its system CYP450s. Further details: method as in PMID 19810674. The conditions noted are these: cited from earlier work.
Data set [7] has as its system rat MAO B. Further details: method as in PMID 19810674. Particulars: cited from earlier work.
Details of data set [8]: method as in PMID 19810674. Particulars: cited from earlier work.
The mark [9] stands for this setting: human recombinant MAO, mean ±SEM of three independent experiments, read-out: MAO A IC50.
Where [10] appears, read: human recombinant MAO, read-out: MAO B IC50.
Where [11] appears, read: MAO B IC50, human recombinant MAO.

What is called IC50 is the concentration that inhibits the measured activity by half. Usually inhibition stands for the change of the read-out against control, counted positive when it falls. Usually Ki stands for a dissociation constant, usually derived from enzyme kinetics or from competition with a known ligand. Low values mean a stronger hold on the target, high ones a looser hold on the target.

Structures can show the parent of a compound that is named as a salt. Where two headings read alike, the source gives them in different places. Some results are limits rather than exact numbers.

Regarding `NC(=O)CNCc1cc(=O)oc2cc(OCc3cccc(Cl)c3)ccc12` [compound 24, N^2-({7-[(3-chlorobenzyl)oxy]-2-oxo-2H-chromen-4-yl}methyl)glycinamide], the IC50 in data set [1] (setting [9]) was 77 ± 14 nM; in data set [2] (setting [10]) it was 61 ± 13 nM; in data set [3] it was 2200 ± 700 nM. Moreover, the inhibition at 10 µM in data set [4] was 13 ± 2%. Besides, the “mechanism of inhibition toward eeAChE” value in data set [5] is “mixed-type”. Besides, in data set [5], affinity was put at a Ki of 3630 nM.
Turning to `CNC(=O)CNCc1cc(=O)oc2cc(OCc3cccc(Cl)c3)ccc12` [compound 25, N^2-({7-[(3-Chlorobenzyl)oxy]-2-oxo-2H-chromen-4-yl}methyl)-N^1-methylglycinamide], the figures for the concentration for half-maximal inhibition (IC50) in data set [1] (setting [9]), in data set [2] (setting [10]) and in data set [3] were 2600 ± 100 nM, 1.1 ± 0.3 nM and 5300 ± 1400 nM, respectively. For the same compound, the inhibition at 10 µM in data set [4] was less than 5%.
Take `CN(C)Cc1cc(=O)oc2cc(OCc3cccc(Cl)c3)ccc12` [compound 19, 7-[(3-chlorobenzyl)oxy]-4-[(dimethylamino)methyl]-2H-chromen-2-one]: the IC50 in data set [1] (setting [9]) came to 9200 ± 700 nM; in data set [2] (setting [10]) it was 213 ± 2 nM; in data set [3], 8300 ± 2000 nM; in data set [4] it was 7000 ± 1100 nM.
As to `C#CCN(C)Cc1cc(=O)oc2cc(OCc3cccc(Cl)c3)ccc12` [compound 23, 7-[(3-Chlorobenzyl)oxy]-4-{[methyl(prop-2-yn-1-yl)amino]methyl}-2H-chromen-2-one hydrochloride], the figures for the IC50 in data set [1], in data set [2] (setting [11]) and in data set [3] were 1700 ± 100 nM, 84 ± 2 nM and 5600 ± 700 nM, respectively. For the same compound, the inhibition at 10 µM in data set [4] is 28 ± 1%.
Consider `CCCCNCc1cc(=O)oc2cc(OCc3cccc(Cl)c3)ccc12` [compound 21, 4-[(butylamino)methyl]-7-[(3-chlorobenzyl)oxy]-2H-chromen-2-one], for which the results for the inhibition at 10 µM in data set [1] (human recombinant MAO) and in data set [3] were 41 ± 3% and 39 ± 1%, respectively. Also, the half-maximal inhibitory concentration (IC50) in data set [2] (setting [10]) is 164 ± 2 nM; in data set [4] it was 4800 ± 300 nM.
Turning to `CNCc1cc(=O)oc2cc(OCc3cc(OC)cc(OC)c3)ccc12` [compound 5, 7-[(3,5-Dimethoxybenzyl)oxy]-4-[(methylamino)methyl]-2H-chromen-2-one], the IC50 in data set [1] (setting [9]) is 1000 ± 100 nM; in data set [2] (setting [10]), 67 ± 5 nM; in data set [3] it was 11000 ± 2000 nM. Besides, the inhibition at 10 µM in data set [4] came to 20 ± 4%.
Regarding `CNCc1cc(=O)oc2cc(OCc3ccccc3)ccc12` [compound 7, 7-(benzyloxy)-4-[(methylamino)methyl]-2H-chromen-2-one], the concentration for half-maximal inhibition (IC50) in data set [1] (setting [9]) came to 530 ± 10 nM; in data set [2] (setting [10]) it was 2.1 ± 0.2 nM. In addition, the inhibition at 10 µM in data set [3] came out at 26 ± 5%; in data set [4], 17 ± 1%.
Consider `CN(C)C(=O)CNCc1cc(=O)oc2cc(OCc3cccc(Cl)c3)ccc12` [compound 26, N^2-({7-[(3-Chlorobenzyl)oxy]-2-oxo-2H-chromen-4-yl}methyl)-N^1,N^1-dimethylglycinamide], for which the IC50 in data set [1] (setting [9]) is 2500 ± 500 nM; in data set [2] (setting [10]), 30 ± 1 nM; in data set [3] it was 4300 ± 600 nM. Moreover, the inhibition at 10 µM in data set [4] is 34 ± 2%.
Consider `CNCc1cc(=O)oc2cc(OCc3cccc(Br)c3)ccc12` [compound 8, 7-[(3-bromobenzyl)oxy]-4-[(methylamino)methyl]-2H-chromen-2-one], for which the IC50 was determined as 2310 ± 40 nM in data set [1] (setting [9]), 2.2 ± 0.1 nM in data set [2] (setting [10]), 2000 ± 40 nM in data set [3] and 2900 ± 400 nM in data set [4]. Also, in data set [5], the “mechanism of inhibition toward eeAChE” value was “mixed-type”. This compound also yielded a Ki in data set [5] of 2910 nM.
For the compound `CNCc1cc(=O)oc2cc(OCc3cccc(Cl)c3)ccc12` [compound 3, 7-[(3-chlorobenzyl)oxy]-4-[(methylamino)methyl]-2H-chromen-2-one], the IC50 is 650 ± 20 nM in data set [1], 3.9 ± 0.8 nM in data set [2] (setting [11]), 6200 ± 700 nM in data set [3] and 13 nM in data set [7] (rat enzyme). The “SI (MAO A/MAO B selectivity)” value in data set [2] (human MAOs) is 167. Moreover, the inhibition at 10 µM in data set [4] amounted to 43 ± 5%. Further, the CYP450s liability result in data set [6] is “poor”. In addition, the “SI, IC50 MAO A/IC50 MAO B” value in data set [7] (rat MAOs) is on record as 457. The “blood–brain barrier penetration” value in data set [8] was “rapid”.
As to `CN(Cc1ccccc1)Cc1cc(=O)oc2cc(OCc3cccc(Cl)c3)ccc12` [compound 14, 4-{[benzyl(methyl)amino]methyl}-7-[(3-chlorobenzyl)oxy]-2H-chromen-2-one], the inhibition at 10 µM in data set [1] (human recombinant MAO) amounted to 28 ± 1%. The IC50 in data set [2] (setting [10]) amounted to 332 ± 26 nM; in data set [3], 16000 ± 1000 nM; in data set [4], 6300 ± 300 nM.
Take `COc1cc(COc2ccc3c(CNCC(N)=O)cc(=O)oc3c2)cc(OC)c1` [compound 27, N^2-({7-[(3,5-dimethoxybenzyl)oxy]-2-oxo-2H-chromen-4-yl}methyl)glycinamide]: the IC50 worked out at 5900 ± 500 nM in data set [1] (setting [9]), 13 ± 1 nM in data set [2] (setting [10]) and 4400 ± 800 nM in data set [3]. The inhibition at 10 µM in data set [4] was determined as 41 ± 2%.
As for `CNCc1cc(=O)oc2cc(OCc3cccc(N(C)C)c3)ccc12` [compound 4, 7-{[3-(Dimethylamino)benzyl]oxy}-4-[(methylamino)methyl]-2H-chromen-2-one], the inhibition at 10 µM in data set [1] (human recombinant MAO) was determined as 49 ± 1%; in data set [4], 34 ± 5%. Also, the results for the IC50 in data set [2] (setting [10]) and in data set [3] were 570 ± 50 nM and 6000 ± 1500 nM, respectively.
In the case of `CNCc1cc(=O)oc2cc(OCc3cccc(Cl)c3)c(C)cc12` [compound 11, 7-[(3-Chlorobenzyl)oxy]-6-methyl-4-[(methylamino)methyl]-2H-chromen-2-one hydrochloride], the values for the IC50 in data set [1] and in data set [2] (setting [11]) were 580 ± 30 nM and 68 ± 2 nM, respectively. Also, the inhibition at 10 µM in data set [3] amounted to 47.1 ± 0.3%; in data set [4] it was 48.1 ± 0.6%.

Source of the values: article PMC6943664 (Molecules, 2019).
